Assay results published in patent US10570121B2, “Substituted dihydroisoquinolinone compounds” (priority 2014, dated 2020).
Read-outs that look alike come from different tables or passages of the source.

Experiments:
Assay type in all cases: biochemical
[1] = molecular target: T1, WT EZH2 (Homo sapiens (Human), UniProt Q15910); test: WT EZH2 nucleosome assay; details: PRC2 4-protein complex 4 nM, 1.5 μM SAM, HeLa oligonucleosomes
Experimental: The genes for EZH2, EED, SUZ12, and RBBP4 proteins were cloned into pBacPAK9 vectors (Clontech). RBBP4 was FLAG tagged on the N-terminal end. The baculovirus expressions of these proteins were used to co-infect SF9 insect cells. Insect cell pellets were lysed in a buffer containing 25 mM Tris pH8.0, 300 mM NaCl, 0.5 mM TCEP, complete EDTA-free protease inhibitor (Roche), 0.1% NP-40. The supernatant from the lysate was incubated with FLAG® M2 antibody resin (Sigma). The resin was washed on the chromatography column and eluted with 0.2 mg/ml FLAG peptide. The elute was incubated with omnicleave nucleases (Epicentre Technologies) at 4° C. overnight, then concentrated and loaded onto a Superdex 200 (GE Healthcare) column. The Superdex 200 column was eluted with 25 mM Tris pH8.0, 150 mM NaCl, 0.5 mM TCEP. Fractions containing the PRC2 complex were pooled.
A. Compound preparation • 1.
B. Reagent preparation • 1. […] Dilute TCA to 20% in DI water
C. Enzyme reaction • 1. […] Some compounds were tested under high SAM conditions.
D. Data analysis • 1. IC50 values were determined by fitting the data to a 4-parameter IC50 equation using proprietary curve fitting software. • 2. For compounds tested under high SAM conditions, Ki^app values were obtained by fitting the dose response curve to a model for competitive inhibition using proprietary curve fitting software. Preparation of HeLa Oligonucleosomes: Reagents • Cell Pellet: 15 L HeLa S3 (Accelgen)+6 L HeLa S3 (in house) • Mnase (Worthington Biochemicals) Equipment • SW-28 Rotor • Dounce Homogenizer/B Pestle Buffers • Lysis: 20 mM Hepes pH 7.5, 0.25M Sucrose, 3 mM MgCl2, 0.5% Nonidet P-40, 0.5 mM TCEP, 1 Roche Protease Tablet • B: 20 mM Hepes pH7.5, 3 mM MgCl2, 0.5 mM EDTA, 0.5 mM TCEP, 1 Roche Protease Tablet • MSB: 20 mM Hepes pH7.5, 0.4 M NaCl, 1 mM EDTA, 5% v/v Glycerol, 0.5 mM TCEP, 0.2 mM PMSF • LSB: 20 mM Hepes pH7.5, 0.1M NaCl, 1 mM EDTA, 0.5 mM TCEP, 0.2 mM PMSF • NG: 20 mM Hepes pH7.5, 1 mM EDTA, 0.4 m NaCl, 0.2 mM PMSF, 0.5 mM TCEP • Storage: 20 mM Hepes pH7.5, 1 mM EDTA, 10% Glycerol, 0.2 mM PMSF, 0.5 mM TCEP Protocol

[2] = molecular target: EZH2 Mutant Y641N (Homo sapiens (Human), UniProt Q15910, Y641N); test: EZH2 Mutant Y641N nucleosome assay; details: PRC2 4-protein complex 6 nM, 1.5 μM SAM, HeLa oligonucleosomes
[3] = molecular target: T1, WT EZH2; test: WT EZH2 nucleosome assay (10X SAM, high SAM conditions); details: 15 uM SAM, Ki app from competitive inhibition fit
[4] = read-out: WT EZH2 Nucleosome assay IC50
[5] = read-out: EZH2 Mutant Y641N Nucleosome assay IC50
[6] = WT EZH2 Nucleosome assay IC50 (μM)
[7] = EZH2 Mutant Y641N Nucleosome assay IC50 (μM)
[8] = read-out: WT EZH2 Nucleosome assay (10X SAM) Ki

Sequence of EZH2 Mutant Y641N (Q15910 whole entry Y641N, looked up): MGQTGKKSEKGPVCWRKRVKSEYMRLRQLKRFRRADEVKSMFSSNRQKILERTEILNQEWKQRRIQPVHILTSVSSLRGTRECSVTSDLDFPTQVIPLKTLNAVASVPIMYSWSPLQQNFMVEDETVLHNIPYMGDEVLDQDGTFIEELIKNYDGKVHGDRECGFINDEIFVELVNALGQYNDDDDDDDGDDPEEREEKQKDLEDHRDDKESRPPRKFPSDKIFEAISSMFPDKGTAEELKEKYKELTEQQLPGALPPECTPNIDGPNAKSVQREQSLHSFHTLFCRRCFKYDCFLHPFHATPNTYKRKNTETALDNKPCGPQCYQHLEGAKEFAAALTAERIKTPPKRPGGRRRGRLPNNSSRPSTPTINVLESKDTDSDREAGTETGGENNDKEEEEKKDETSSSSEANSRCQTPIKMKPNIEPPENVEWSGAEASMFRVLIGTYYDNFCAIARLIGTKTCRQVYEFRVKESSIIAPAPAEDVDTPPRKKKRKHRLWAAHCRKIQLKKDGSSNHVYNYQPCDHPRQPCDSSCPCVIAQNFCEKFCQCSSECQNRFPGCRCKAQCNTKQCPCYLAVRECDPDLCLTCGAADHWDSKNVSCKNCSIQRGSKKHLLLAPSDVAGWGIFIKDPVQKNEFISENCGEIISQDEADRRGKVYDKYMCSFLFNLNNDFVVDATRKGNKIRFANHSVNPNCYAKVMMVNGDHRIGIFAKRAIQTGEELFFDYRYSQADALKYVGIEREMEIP
Sequence of EZH2 Mutant Y641N (O75530 whole entry partner, looked up): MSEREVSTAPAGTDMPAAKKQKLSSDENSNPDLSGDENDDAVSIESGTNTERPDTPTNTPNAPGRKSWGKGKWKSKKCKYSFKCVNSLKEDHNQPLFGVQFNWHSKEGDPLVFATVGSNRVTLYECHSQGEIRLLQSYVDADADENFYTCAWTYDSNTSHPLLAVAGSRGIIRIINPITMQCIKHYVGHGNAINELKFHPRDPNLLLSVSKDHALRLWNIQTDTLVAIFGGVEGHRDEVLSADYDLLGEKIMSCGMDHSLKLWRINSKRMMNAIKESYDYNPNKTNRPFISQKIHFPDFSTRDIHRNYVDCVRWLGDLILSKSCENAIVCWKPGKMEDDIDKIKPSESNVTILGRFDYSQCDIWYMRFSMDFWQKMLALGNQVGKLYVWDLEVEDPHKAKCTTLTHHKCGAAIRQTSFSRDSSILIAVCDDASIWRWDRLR
Sequence of EZH2 Mutant Y641N (Q15022 whole entry partner, looked up): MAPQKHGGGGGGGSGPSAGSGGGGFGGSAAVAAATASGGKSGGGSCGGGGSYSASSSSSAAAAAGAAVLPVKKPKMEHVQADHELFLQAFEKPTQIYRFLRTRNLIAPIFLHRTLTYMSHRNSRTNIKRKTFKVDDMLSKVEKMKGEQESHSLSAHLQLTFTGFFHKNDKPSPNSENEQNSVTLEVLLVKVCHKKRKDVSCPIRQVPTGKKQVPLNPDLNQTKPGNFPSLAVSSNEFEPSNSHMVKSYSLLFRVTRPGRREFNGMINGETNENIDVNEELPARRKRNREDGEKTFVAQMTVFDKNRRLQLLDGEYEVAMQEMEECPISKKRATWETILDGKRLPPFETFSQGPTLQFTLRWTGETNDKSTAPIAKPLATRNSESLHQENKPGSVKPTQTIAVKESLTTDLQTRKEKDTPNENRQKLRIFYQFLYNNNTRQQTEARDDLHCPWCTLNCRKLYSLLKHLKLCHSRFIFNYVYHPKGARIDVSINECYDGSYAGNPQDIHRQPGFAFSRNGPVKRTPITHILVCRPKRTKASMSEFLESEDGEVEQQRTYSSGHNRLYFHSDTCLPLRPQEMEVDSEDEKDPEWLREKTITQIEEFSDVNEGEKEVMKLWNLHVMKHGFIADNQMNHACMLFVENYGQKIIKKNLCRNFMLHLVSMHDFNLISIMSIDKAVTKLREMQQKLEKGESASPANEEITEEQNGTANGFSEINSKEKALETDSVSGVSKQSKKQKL
Sequence of EZH2 Mutant Y641N (Q09028 whole entry partner, looked up): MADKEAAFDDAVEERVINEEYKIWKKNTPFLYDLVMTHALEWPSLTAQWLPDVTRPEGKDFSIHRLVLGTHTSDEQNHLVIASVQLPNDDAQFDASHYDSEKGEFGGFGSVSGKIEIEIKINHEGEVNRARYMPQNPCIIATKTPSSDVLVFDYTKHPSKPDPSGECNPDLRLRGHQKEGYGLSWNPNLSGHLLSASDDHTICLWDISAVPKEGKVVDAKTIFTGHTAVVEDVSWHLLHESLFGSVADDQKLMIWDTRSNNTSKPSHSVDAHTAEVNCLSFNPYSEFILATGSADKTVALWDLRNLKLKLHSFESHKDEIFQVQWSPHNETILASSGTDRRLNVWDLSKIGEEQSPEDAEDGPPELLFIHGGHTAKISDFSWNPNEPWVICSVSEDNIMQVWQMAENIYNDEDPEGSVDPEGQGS
T1 sequence (Q15910 whole entry, looked up): as the sequence (Q15910 whole entry Y641N, looked up) above, with N641Y counted along it
T1 sequence (O75530 whole entry partner, looked up): as the sequence (O75530 whole entry partner, looked up) above
T1 sequence (Q15022 whole entry partner, looked up): as the sequence (Q15022 whole entry partner, looked up) above
T1 sequence (Q09028 whole entry partner, looked up): as the sequence (Q09028 whole entry partner, looked up) above

Row | SMILES | IC50 [1, 4] [µM] | IC50 [2, 5] [µM] | Ki [3, 8] [µM] | further results
1 | Cc1cc(C)c(CN2CCc3c(Cl)cc(C(C)CCO)c(Cl)c3C2=O)c(=O)[nH]1 (racemic) [Example 33] | 0.012 | 0.07 |  | 
2 | Cc1cc(C)c(CN2CCc3c(Cl)cc([C@H](CO)[C@@H]4CCOC4)c(Cl)c3C2=O)c(=O)[nH]1 (single isomer, unassigned) [Example 2, 5,8-dichloro-2-[(4,6-dimethyl-2-oxo-1,2-dihydropyridin-3-yl)methyl]-7-{(1R*)-2-hydroxy-1-[(3S*)-tetrahydrofuran-3-yl]ethyl}-3,4-dihydroisoquinolin-1(2H)-one] |  |  |  | IC50 [1, 6]: 0.002 µM; IC50 [2, 7]: 0.004 µM
3 | Cc1cc(C)c(CN2CCc3c(Cl)cc(CC(=O)O)c(Cl)c3C2=O)c(=O)[nH]1 [Example 22] | 7.82 | 95.2 |  | 
4 | Cc1cc(C)c(CN2CCc3c(Cl)cc(C(C)CO)c(Cl)c3C2=O)c(=O)[nH]1 (racemic) [Example 17] |  |  |  | IC50 [1, 6]: 0.035 µM; IC50 [2, 7]: 0.125 µM
5 | Cc1cc(C)c(CN2CCc3c(Cl)cc([C@H](CO)[C@H]4CCOC4)c(Cl)c3C2=O)c(=O)[nH]1 [Example 1, 5,8-dichloro-2-[(4,6-dimethyl-2-oxo-1,2-dihydropyridin-3-yl)methyl]-7-{(1R)-2-hydroxy-1-[(3R)-tetrahydrofuran-3-yl]ethyl}-3,4-dihydroisoquinolin-1(2H)-one] | 0.001 | 0.003 |  | 
6 | COC(CO)c1cc(Cl)c2c(c1Cl)C(=O)N(Cc1c(C)cc(C)[nH]c1=O)CC2 (single isomer, unassigned) [Example 11, 5,8-dichloro-2-[(4,6-dimethyl-2-oxo-1,2-dihydropyridin-3-yl)methyl]-7-(2-hydroxy-1-methoxyethyl)-3,4-dihydroisoquinolin-1(2H)-one] | 0.038 | 0.174 |  | 
7 | Cc1cc(C)c(CN2CCc3c(Cl)cc(C(C)CN(C)CCO)c(Cl)c3C2=O)c(=O)[nH]1 (racemic) [Example 21] | 0.015 | 0.109 |  | 
8 | COC(CO)c1cc(Cl)c2c(c1Cl)C(=O)N(Cc1c(C)cc(C)[nH]c1=O)CC2 (single isomer, unassigned) [Example 10, 5,8-dichloro-2-[(4,6-dimethyl-2-oxo-1,2-dihydropyridin-3-yl)methyl]-7-(2-hydroxy-1-methoxyethyl)-3,4-dihydroisoquinolin-1(2H)-one] | 0.326 | 1.98 |  | 
9 | CCC(O)c1cc(Cl)c2c(c1Cl)C(=O)N(Cc1c(C)cc(C)[nH]c1=O)CC2 (single isomer, unassigned) [Example 27] |  |  |  | IC50 [1, 6]: 0.037 µM; IC50 [2, 7]: 0.3 µM
10 | Cc1cc(C)c(CN2CCc3c(Cl)cc(C(CO)C4CCOCC4)c(Cl)c3C2=O)c(=O)[nH]1 (racemic) [Example 31] |  |  |  | IC50 [1, 6]: 0.004 µM; IC50 [2, 7]: 0.006 µM
11 | CCC(CO)c1cc(Cl)c2c(c1Cl)C(=O)N(Cc1c(C)cc(C)[nH]c1=O)CC2 (racemic) [Example 20] |  |  |  | IC50 [1, 6]: 0.011 µM; IC50 [2, 7]: 0.053 µM
12 | Cc1cc(C)c(CN2CCc3c(Cl)cc(C(CO)C4CCOCC4)c(Cl)c3C2=O)c(=O)[nH]1 (single isomer, unassigned) [Example 37] |  |  |  | IC50 [1, 6]: 0.001 µM; IC50 [2, 7]: 0.002 µM
13 | Cc1cc(C)c(CN2CCc3c(Cl)cc(C(C)CCO)c(Cl)c3C2=O)c(=O)[nH]1 (single isomer, unassigned) [Example 39] | 0.04 | 0.242 |  | 
14 | Cc1cc(C)c(CN2CCc3c(Cl)cc(C(C)CCO)c(Cl)c3C2=O)c(=O)[nH]1 (single isomer, unassigned) [Example 40] | 0.006 | 0.024 |  | 
15 | Cc1cc(C)c(CN2CCc3c(Cl)cc(C(C)C)c(Cl)c3C2=O)c(=O)[nH]1 [Example 14, 5,8-dichloro-2-[(4,6-dimethyl-2-oxo-1,2-dihydropyridin-3-yl)methyl]-7-(propan-2-yl)-3,4-dihydroisoquinolin-1(2H)-one] | 0.008 | 0.04 |  | 
16 | Cc1cc(C)c(CN2CCc3c(Cl)cc(C([C@H](C)O)[C@@H](C)O)c(Cl)c3C2=O)c(=O)[nH]1 (single isomer, unassigned) [Example 42] | 0.012 | 0.102 |  | 
17 | Cc1cc(C)c(CN2CCc3c(Cl)cc([C@@H](CO)[C@H]4CCOC4)c(Cl)c3C2=O)c(=O)[nH]1 (single isomer, unassigned) [Example 3, 5,8-dichloro-2-[(4,6-dimethyl-2-oxo-1,2-dihydropyridin-3-yl)methyl]-7-{(1S*)-2-hydroxy-1-[(3R*)-tetrahydrofuran-3-yl]ethyl}-3,4-dihydroisoquinolin-1(2H)-one] |  |  |  | IC50 [1, 6]: 0.066 µM
18 | Cc1cc(C)c(CN2CCc3c(Cl)cc(C(CO)N4CCOCC4)c(Cl)c3C2=O)c(=O)[nH]1 (racemic) [Example 60] |  | 0.18 | 0.031 | 
19 | COC(c1cc(Cl)c2c(c1Cl)C(=O)N(Cc1c(C)cc(C)[nH]c1=O)CC2)C1CCN(C=O)CC1 (single isomer, unassigned) [Example 72] |  | 0.128 | 0.041 | 
20 | COC(c1cc(Cl)c2c(c1Cl)C(=O)N(Cc1c(C)cc(C)[nH]c1=O)CC2)C1CN(S(C)(=O)=O)C1 (single isomer, unassigned) [Example 177] |  | 0.282 | 0.049 | 
21 | CC(=C1CN(S(C)(=O)=O)C1)c1cc(C)c2c(c1Cl)C(=O)N(Cc1c(C)cc(C)[nH]c1=O)CC2 [Example 77] |  | 0.132 | 0.022 | 
22 | CCC(OC)c1cc(Cl)c2c(c1Cl)C(=O)N(Cc1c(C)cc(C)[nH]c1=O)CC2 (single isomer, unassigned) [Example 16, 5,8-dichloro-2-[(4,6-dimethyl-2-oxo-1,2-dihydropyridin-3-yl)methyl]-7-(1-methoxypropyl)-3,4-dihydroisoquinolin-1(2H)-one] |  |  |  | Ki ([3]; WT EZH2 Nucleosome assay (10X SAM) Ki (μM)): 0.004 µM; IC50 [2, 7]: 0.04 µM
23 | Cc1cc(C)c(CN2CCc3c(Cl)cc(C(CO)N4CC[C@@H](F)C4)c(Cl)c3C2=O)c(=O)[nH]1 (single isomer, unassigned) [Example 6] |  | 0.136 | 0.019 | 
24 | COC(c1cc(Cl)c2c(c1Cl)C(=O)N(Cc1c(C)cc(C)[nH]c1=O)CC2)C1CN(C(=O)CO)C1 (single isomer, unassigned) [Example 129] |  | 0.008 | 0.0008 | 

Further lines, with some results ahead:

Row | IC50 [1, 4] [µM] | IC50 [2, 5] [µM] | Ki [3, 8] [µM] | SMILES | further results
25 |  | 0.012 | 0.0008 | COC(c1cc(Cl)c2c(c1Cl)C(=O)N(Cc1c(C)cc(C)[nH]c1=O)CC2)C1CN(C(=O)[C@H](C)O)C1 (single isomer, unassigned) [Example 172] | 
26 |  | 0.07 | 0.0151 | COC(c1cc(C)c2c(c1Cl)C(=O)N(Cc1c(C)cc(C)[nH]c1=O)CC2)C1CCN(C(=O)CO)CC1 (single isomer, unassigned) [Example 169] | 
27 |  | 0.127 | 0.031 | COC(c1cc(Cl)c2c(c1Cl)C(=O)N(Cc1c(C)cc(C)[nH]c1=O)CC2)C1CCN(C(=O)CC#N)CC1 (single isomer, unassigned) [Example 61] | 
28 |  | 0.0035 | 0.0001 | COC(c1cc(Br)c2c(c1Cl)C(=O)N(Cc1c(C)cc(C)[nH]c1=O)CC2)C1CCN(C)CC1 (single isomer, unassigned) [Example 146] | 
29 |  | 1.99 | 0.22 | COc1cc(C)[nH]c(=O)c1CN1CCc2c(C)cc(C(OC)C3CCS(=O)(=O)CC3)c(Cl)c2C1=O (single isomer, unassigned) [Example 130] | 
30 |  | 0.003 | 0.0001 | COC(c1cc(Cl)c2c(c1Cl)C(=O)N(Cc1c(C)cc(C)[nH]c1=O)CC2)C1CCS(=O)(=O)C1 (single isomer, unassigned) [Example 150] | 
31 |  | 0.005 | 0.0007 | COC(c1cc(C)c2c(c1Cl)C(=O)N(Cc1c(C)cc(C)[nH]c1=O)CC2)C1CCS(=O)(=O)CC1 (single isomer, unassigned) [Example 131] | 
32 |  | 4.31 | 0.417 | Cc1cc(C)c(CN2CCc3c(Cl)cc(C(CO)N4CCOCC4)c(Cl)c3C2=O)c(=O)[nH]1 (single isomer, unassigned) [Example 69] | 
